Measured values as given in patent US8883833B2, “Substituted benzoazole PDE4 inhibitors for treating inflammatory, cardiovascular and CNS disorders” (Decode Genetics EHF, priority 2007, dated 2014).
pIC50: −log10 of the molar value.

Key:
Assay type in all cases: biochemical
[1] = target: h4D7 (Homo sapiens, UniProt Q08499); experiment: In-vitro assay for PDE4 enzymes, real-time enzyme-coupled spectrophotometric assay (Table 3)
Method: (§1) In-vitro assay for PDE4 enzymes. The in-vitro activity of PDE4 enzymes and the in-vitro potency of therapeutic agents described in the present invention was measured using a real-time, enzyme-coupled spectrophotometric assay. By using three different coupling enzymes, the product of the PDE4 reaction is coupled to the oxidation of the reduced form β-nicotinamide adenine dinucleotide (NADH), which dissipation can be monitored spectrophotmetrically at […]. Assay description. Buffer A containing 50 mM Tris, pH 8.0, 16 mM MgCl2 and 80 mM KCl is prepared and stored at room temperature. Buffer B containing 50 mM Tris, pH 8.0 is prepared and stored at toom temperature. Stock solutions of the following reagents are prepared in Buffer B and stored at −20° C.: Adenosine-5′-triphosphate (ATP), cyclic adenosine-5′-monophosphate (cAMP), phosphoenolpyruvate (PEP) and NADH. An assay mix is prepared by mixing Buffer A, […] (TCEP), ATP, PEP, NADH, myokinase (MK), pyruvate kinase (PK), lactate dehydroganese (LDH) and PDE4 to a final volume of 20 mL, which is enough for a single 96-well assay plate. Assay mix (180 μL) and test article (10 μL) in 1:1 DMSO/H2O mixture is pre-incubated at room temperature for 10 min. The enzymatic reaction is initiated by addition of cAMP (10 μL). Final concentration of all components in the assay (200 μL/well) are as follows: 10 mM MgCl2, 50 mM KCl, 5 mM TCEP, 2.5% DMSO, 0.4 mM NADH, 1 mM PEP, 0.04 mM ATP, 5 units MK, 1 unit PK, 1 unit LDH and appropriate amount of PDE4. Reaction progress curves are monitored in a plate reader capable of measuring light absorbance at 340 nm. A decrease in light absorbance at 340 nm is due to oxidation of NADH. Positive controls containing no test article and negative controls containing no test article and no cAMP are included on every assay plate. Reaction rates are determined from the slopes of the linear portions of the progress curves. All data is percent normalized with respect to controls and presented as percent inhibition.

[2] = target: h4B1 (Homo sapiens, UniProt Q07343); experiment: as above
Method: as §1

[3] = target: human PDE4B isozyme (Homo sapiens, UniProt Q07343); experiment: IC50 for human PDE4B isozyme (Table 5); conditions: read-out: IC50 for human PDE4B isozyme, hPDE4B
Method: as §1

[4] = target: human PDE4D isozyme (Homo sapiens, UniProt Q08499); experiment: IC50 for human PDE4D isozyme (Table 4); conditions: read-out: IC50 for human PDE4D isozyme, hPDE4D
Method: as §1

h4D7, sequence (Q08499 1-748 isoform Q08499-11): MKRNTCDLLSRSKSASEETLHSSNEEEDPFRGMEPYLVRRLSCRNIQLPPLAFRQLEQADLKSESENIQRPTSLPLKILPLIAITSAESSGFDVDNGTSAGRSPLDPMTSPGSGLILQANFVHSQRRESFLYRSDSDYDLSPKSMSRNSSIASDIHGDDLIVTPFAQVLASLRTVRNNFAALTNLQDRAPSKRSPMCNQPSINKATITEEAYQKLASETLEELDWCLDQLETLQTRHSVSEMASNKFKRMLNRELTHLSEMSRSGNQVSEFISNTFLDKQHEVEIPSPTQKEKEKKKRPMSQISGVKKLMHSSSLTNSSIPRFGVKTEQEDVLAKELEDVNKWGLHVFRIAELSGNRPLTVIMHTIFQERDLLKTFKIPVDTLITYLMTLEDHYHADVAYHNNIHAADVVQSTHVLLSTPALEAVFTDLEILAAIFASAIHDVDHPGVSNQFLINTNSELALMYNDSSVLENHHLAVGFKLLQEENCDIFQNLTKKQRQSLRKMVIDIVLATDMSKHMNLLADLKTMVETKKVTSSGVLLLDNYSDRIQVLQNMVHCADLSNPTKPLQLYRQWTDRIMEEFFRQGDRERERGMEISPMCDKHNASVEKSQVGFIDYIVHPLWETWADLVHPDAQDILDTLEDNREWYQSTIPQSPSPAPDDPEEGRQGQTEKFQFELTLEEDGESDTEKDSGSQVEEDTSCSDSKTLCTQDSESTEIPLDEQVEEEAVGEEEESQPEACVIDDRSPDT
human PDE4D isozyme, sequence (Q08499 whole entry): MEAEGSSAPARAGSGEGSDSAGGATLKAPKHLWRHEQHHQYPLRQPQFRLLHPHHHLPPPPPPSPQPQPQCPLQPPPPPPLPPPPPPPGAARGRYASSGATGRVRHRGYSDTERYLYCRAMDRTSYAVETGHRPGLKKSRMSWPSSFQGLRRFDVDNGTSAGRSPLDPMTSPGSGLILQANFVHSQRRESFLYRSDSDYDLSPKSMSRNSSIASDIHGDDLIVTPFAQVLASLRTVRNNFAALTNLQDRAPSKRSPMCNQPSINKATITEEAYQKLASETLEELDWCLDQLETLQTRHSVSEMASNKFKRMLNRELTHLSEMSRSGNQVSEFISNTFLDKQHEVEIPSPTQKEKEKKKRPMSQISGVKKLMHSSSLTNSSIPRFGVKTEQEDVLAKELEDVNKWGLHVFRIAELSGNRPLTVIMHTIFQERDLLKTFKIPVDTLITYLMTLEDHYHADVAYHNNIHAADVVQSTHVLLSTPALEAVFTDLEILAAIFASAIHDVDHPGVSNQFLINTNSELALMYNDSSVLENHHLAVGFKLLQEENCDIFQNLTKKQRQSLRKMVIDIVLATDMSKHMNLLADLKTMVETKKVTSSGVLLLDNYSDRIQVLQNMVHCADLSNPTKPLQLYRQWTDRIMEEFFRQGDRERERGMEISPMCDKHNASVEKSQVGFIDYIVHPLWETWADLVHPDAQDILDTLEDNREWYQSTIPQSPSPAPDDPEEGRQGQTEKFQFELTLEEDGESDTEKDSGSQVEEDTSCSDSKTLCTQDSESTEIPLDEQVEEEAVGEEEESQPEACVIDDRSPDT
human PDE4B isozyme, sequence (Q07343 whole entry): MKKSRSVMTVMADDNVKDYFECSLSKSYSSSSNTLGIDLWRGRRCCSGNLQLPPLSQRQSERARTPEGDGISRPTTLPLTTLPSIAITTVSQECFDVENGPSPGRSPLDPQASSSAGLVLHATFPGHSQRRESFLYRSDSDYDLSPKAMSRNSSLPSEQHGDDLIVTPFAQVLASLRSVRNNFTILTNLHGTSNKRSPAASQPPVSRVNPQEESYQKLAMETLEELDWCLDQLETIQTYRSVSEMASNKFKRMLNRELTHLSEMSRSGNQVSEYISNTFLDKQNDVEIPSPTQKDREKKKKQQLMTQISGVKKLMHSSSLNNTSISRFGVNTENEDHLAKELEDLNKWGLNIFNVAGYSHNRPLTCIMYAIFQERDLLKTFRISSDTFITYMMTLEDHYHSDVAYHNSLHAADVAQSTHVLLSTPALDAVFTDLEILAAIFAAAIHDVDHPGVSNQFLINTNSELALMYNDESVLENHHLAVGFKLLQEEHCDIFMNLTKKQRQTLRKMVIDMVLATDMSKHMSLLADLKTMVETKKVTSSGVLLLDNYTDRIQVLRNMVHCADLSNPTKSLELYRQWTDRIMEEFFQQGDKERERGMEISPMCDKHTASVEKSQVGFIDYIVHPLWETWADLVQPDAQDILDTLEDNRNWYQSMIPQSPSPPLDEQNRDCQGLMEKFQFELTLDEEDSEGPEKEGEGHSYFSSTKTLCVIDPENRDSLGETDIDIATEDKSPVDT
h4B1, sequence (Q07343 whole entry): as above

pIC50 [1]	pIC50 [2]	pIC50 [3]	pIC50 [4]	Compound
		> 5.30	> 5.30	CCOC(=O)Nc1ccc(Cc2cc3scnc3c(-c3cccc(Cl)c3)c2F)cn1 [BA-40, {5-[4-(3-chloro-phenyl)-5-fluoro-benzothiazol-6-ylmethyl]-pyridin-2-yl}-carbamic acid ethyl ester]
		> 5.30	> 5.30	COc1ccc(Cc2cc3scnc3c(-c3cccc(Cl)c3)c2F)cn1 [BA-38, 4-(3-chloro-phenyl)-5-fluoro-6-(6-methoxy-pyridin-3-ylmethyl)-benzothiazole]
		> 5.30	> 5.30	Nc1ccc(Cc2cc(-c3cccc(Cl)c3)c3nc(N)sc3c2)cc1 [BA-26, 6-(4-Amino-benzyl)-4-(3-chloro-phenyl)-benzothiazol-2-ylamine]
		> 5.30	> 5.30	CN(C)c1ccc(Cc2cc3scnc3c(-c3cccc(Cl)c3)c2F)cn1 [BA-55, {5-[4-(3-chloro-phenyl)-5-fluoro-benzothiazol-6-ylmethyl]-pyridin-2-yl}-dimethyl-amine]
		> 5.30	> 5.30	Cn1nccc1Cc1cc(-c2ccc3c(c2)OCO3)c2nc(N)sc2c1 [BA-08, 4-Benzo[1,3]dioxol-5-yl-6-(2-methyl-2H-pyrazol-3-ylmethyl)-benzothiazol-2-ylamine]
		> 5.30	> 5.30	Nc1nc2c(-c3ccc4c(c3)OCO4)cc(Cn3cccn3)cc2s1 [BA-09, 4-Benzo[1,3]dioxol-5-yl-6-pyrazol-1-ylmethyl-benzothiazol-2-ylamine]
		> 5.30	> 5.30	CSc1cccc(-c2cc(Cn3cccn3)cc3sc(N)nc23)c1 [BA-14, 4-(3-Methylsulfanyl-phenyl)-6-pyrazol-1-ylmethyl-benzothiazol-2-ylamine]
		> 5.30	> 5.30	Nc1nc2c(-c3ccc4nonc4c3)cc(Cc3ccc(F)cc3)cc2s1 [BA-03, 4-Benzol[1,2,5]oxadiazol-5-yl-6-(4-fluoro-benzyl)-benzothiazol-2-yl amine]
		> 5.30	> 5.30	CS(=O)(=O)Nc1ccc(Cc2cc(-c3cccc(Cl)c3)c3nc(N)oc3c2)cc1 [BA-20, N-{4-[2-Amino-4-(3-chloro-phenyl)-benzooxazol-6-ylmethyl]-phenyl}-methanesulfonamide]
		> 5.30	> 5.30	NC(=O)Nc1ccc(Cc2cc(-c3cccc(Cl)c3)c3nc(N)sc3c2)cc1 [BA-27, {4-[2-Amino-4-(3-chloro-phenyl)-benzothiazol-6-ylmethyl]-phenyl}-urea]

The next lines start with the compound.

Compound	pIC50 [1]	pIC50 [2]	pIC50 [3]	pIC50 [4]
Nc1nc2c(-c3cccc([N+](=O)[O-])c3)cc(Cn3ccnc3)cc2s1 [Example 2, 6-imidazol-1-ylmethyl-4-(3-nitro-phenyl)-benzothiazol-2-ylamine]	> 6.00	> 6.00		
Nc1nc2c(-c3cccc([N+](=O)[O-])c3)cc(Cc3ccc(F)cc3)cc2s1 [Example 1, 6-(4-fluorobenzyl)-4-(3-nitrophenyl)-benzothiazol-2-yl amine]	> 6.00	5.00 to 6.00		
CC(=O)c1cccc(-c2cc(Cn3cccn3)cc3sc(N)nc23)c1 [Example 12, 1-[3-(2-Amino-6-pyrazol-1-ylmethyl-benzothiazol-4-yl)-phenyl]-ethanone]	> 6.00	5.00 to 6.00		
COc1ccc(Cc2cc3scnc3c(-c3cccc(Cl)c3)c2F)cn1 [Example 38, 4-(3-chloro-phenyl)-5-fluoro-6-(6-methoxy-pyridin-3-ylmethyl)-benzothiazole]	> 6.00	5.00 to 6.00		
CSc1cccc(-c2cc(Cn3cccn3)cc3sc(N)nc23)c1 [Example 14, 4-(3-Methylsulfanyl-phenyl)-6-pyrazol-1-ylmethyl-benzothiazol-2-ylamine]	> 6.00	5.00 to 6.00		
Oc1cccc(Cc2cc3scnc3c(-c3cccc(Cl)c3)c2F)c1 [Example 39, 3-[4-(3-chloro-phenyl)-5-fluoro-benzothiazol-6-ylmethyl]-phenol]	> 6.00	5.00 to 6.00		
Nc1ccc(Cc2cc3sc(N)nc3c(-c3cccc([N+](=O)[O-])c3)c2O)cc1 [Example 15, 2-Amino-6-(4-amino-benzyl)-4-(3-nitro-phenyl)-benzothiazol-5-ol]	> 6.00	> 6.00		
CCNC(=O)Nc1ccc(Cc2cc3scnc3c(-c3cccc(Cl)c3)c2F)cn1 [Example 33, 1-[5-[4-(3-chloro-phenyl)-5-fluoro-benzothiazol-6-ylmethyl]-pyridin-2-yl]-3-ethyl-urea]	> 6.00	> 6.00		
CCOC(=O)Nc1ccc(Cc2cc3scnc3c(-c3cccc(Cl)c3)c2F)cn1 [Example 40, {5-[4-(3-chloro-phenyl)-5-fluoro-benzothiazol-6-ylmethyl]-pyridin-2-yl}-carbamic acid ethyl ester]	> 6.00	< 4.52		
Nc1nc2c(-c3ccc4c(c3)OCO4)cc(Cc3ccc(F)cc3)cc2s1 [Example 4, 4-Benzo[1,3]dioxol-5-yl-6-(4-fluoro-benzyl)-benzothiazol-2-ylamine]	> 6.00	5.00 to 6.00		
Nc1nc2c(-c3cccc(Br)c3)cc(Cc3ccc(F)cc3)cc2s1 [Example 13, 4-(3-bromophenyl)-6-(4-fluorobenzyl)-1,3-benzothiazol-2-amine]	> 6.00	5.00 to 6.00		
Nc1ccc(Cc2cc3sc(N)nc3c(-c3cccc(Cl)c3)c2F)cc1 [Example 16, 6-(4-amino-benzyl)-4-(3-chloro-phenyl)-5-fluoro-benzothiazol-2-ylamine]	> 6.00			
CCNC(=O)Nc1ccc(Cc2cc3scnc3c(-c3cccc(Cl)c3)c2F)cc1 [Example 30, 1-{4-[4-(3-chloro-phenyl)-5-fluoro-benzothiazol-6-ylmethyl]-phenyl}-3-ethyl-urea]	> 6.00	> 6.00		
CS(=O)(=O)Nc1ccc(Cc2cc(-c3cccc(Cl)c3)c3nc(N)oc3c2)cc1 [Example 20, N-{4-[2-Amino-4-(3-chloro-phenyl)-benzooxazol-6-ylmethyl]-phenyl}-methanesulfonamide]	> 6.00	5.00 to 6.00		
Nc1nc2c(-c3ccc4c(c3)OCO4)cc(Cn3cccn3)cc2s1 [Example 9, 4-Benzo[1,3]dioxol-5-yl-6-pyrazol-1-ylmethyl-benzothiazol-2-ylamine]	5.00 to 6.00	5.00 to 6.00		
Cc1nc2c(-c3cccc(Cl)c3)cc(Cc3ccc(N)cc3)cc2o1 [Example 22, 4-{[4-(3-chlorophenyl)-2-methyl-1,3-benzoxazol-6-yl]methyl}aniline]	> 6.00	> 6.00		
Cn1nccc1Cc1cc(-c2ccc3c(c2)OCO3)c2nc(N)sc2c1 [Example 8, 4-Benzo[1,3]dioxol-5-yl-6-(2-methyl-2H-pyrazol-3-ylmethyl)-benzothiazol-2-ylamine]	> 6.00	5.00 to 6.00		
Cn1nccc1C(O)c1cc(-c2ccc3c(c2)OCO3)c2nc(N)sc2c1 (stereo not drawn) [Example 6, (2-Amino-4-benzo[1,3]dioxol-5-yl-benzothiazol-6-yl)-(2-methyl-2H-pyrazol-3-yl)-methanol]	5.00 to 6.00	4.70 to 5.00		
NC(=O)NC1CCN(Cc2cc3scnc3c(-c3cccc(Cl)c3)c2F)CC1 [Example 46, [1-[4-(3-Chloro-phenyl)-5-fluoro-benzothiazol-6-ylmethyl]-piperidin-4-yl]-urea]	5.00 to 6.00			
Nc1nc2c(-c3ccc4c(c3)OCO4)cc(C(O)c3ccc(F)cc3)cc2s1 (stereo not drawn) [Example 5, (2-Amino-4-benzo[1,3]dioxol-5-yl-benzothiazol-6-yl)-(4-fluoro-phenyl)-methanol]	5.00 to 6.00			
